We go through 23 compounds from the supplement of paper PMC9103864.

Assay [1] has as its system BMSC (primary human bone marrow mesenchymal stromal cells). Briefly: absolute EC50 for viability; higher = less sensitive.
Assay [2] shares this test system. Put plainly: drug sensitivity score (DSS); higher = more sensitive.

For the compound `CC(C)(C)c1cc(NC(=O)Nc2ccc(Oc3ccnc4[nH]c(=O)cnc34)cc2F)n(-c2ccccc2)n1`, the “absolute EC50 for viability” value in assay [1] is over 25 µM. This compound showed a drug sensitivity score in assay [2] of 0.

As for `CC(C)Oc1ccc(C(=O)N[C@H](CNC(=O)CN(C)C)Cc2ccc(-c3cn4cccc([C@H](C)O)c4n3)cc2)cc1Cl`, the “absolute EC50 for viability” value in assay [1] was 9.93 µM. The compound further came in with a drug sensitivity score in assay [2] of 0.

In the case of `CC[C@@H]1[C@H](F)C(=O)N[C@@H]1COc1nccc2cc(C(N)=O)c(OC)cc12`, in assay [1], the “absolute EC50 for viability” value is over 10 µM. Further, the drug sensitivity score in assay [2] turned out to be 0.3.

For the compound `CCn1c(-c2nonc2N)nc2c(C#CC(C)(C)O)ncc(OC[C@H]3CCCNC3)c21`, the “absolute EC50 for viability” value in assay [1] was over 10 µM. In assay [2], the drug sensitivity score was 6.3.

With `CCn1c(C(=O)N(C2CC2)C2CC2)cc2c3c(ncn3C)c(Nc3cc(C)n(C)n3)nc21`, in assay [1], the “absolute EC50 for viability” value is over 10 µM. In assay [2], this compound displayed a drug sensitivity score of 1.

Turning to `CCn1cc(-c2ccnc3[nH]c(-c4cccc(CN(C)C)c4)cc23)c(-c2ccc(NC(=O)N(C)C)cc2)n1`, in assay [1], the “absolute EC50 for viability” value is over 1 µM. For the same compound, the drug sensitivity score in assay [2] turned out to be 1.5.

As to `CN(c1ncccc1CNc1nc(Nc2ccc3c(c2)CC(=O)N3)ncc1C(F)(F)F)S(C)(=O)=O`, the “absolute EC50 for viability” value in assay [1] was over 10 µM. The drug sensitivity score in assay [2] worked out at 3.2.

Regarding `CNc1ncc2cc(-c3cc(NC(=O)NCCC(C)(C)C)c(F)cc3C)c(C)nc2n1`, in assay [1], the “absolute EC50 for viability” value was over 10 µM. The same compound came in with a drug sensitivity score in assay [2] of 6.2.

As to `CONC(=O)c1ccccc1Nc1cc(Nc2cc(C)nn2C(C)C)ncc1Cl`, the “absolute EC50 for viability” value in assay [1] is over 1 µM. For the same compound, in assay [2], the drug sensitivity score is 0.1.

In the case of `COc1ccc(Cn2ccc3ccc(C(=O)NO)cc32)cc1`, the “absolute EC50 for viability” value in assay [1] came to 9.93 µM. In addition, the drug sensitivity score in assay [2] came to 0.

As to `COc1ccc2[nH]cc(/C=C3\C(=O)Nc4ccc(NC(=O)CCN5CCCCC5)cc43)c2c1`, the “absolute EC50 for viability” value in assay [1] came to 7.38 µM. Moreover, the drug sensitivity score in assay [2] was 9.6.

For `C[C@@H](Oc1ccc2[nH]nc(/C=C/c3cnn(CCO)c3)c2c1)c1c(Cl)cncc1Cl`, in assay [1], the “absolute EC50 for viability” value is over 1 µM. The compound also returned a drug sensitivity score in assay [2] of 3.6.

In the case of `C[C@@H]1CN(CC(=O)Nc2ccc3c(c2)Cc2cccc(-c4cc(=O)cc(N5CCOCC5)o4)c2S3)C[C@H](C)O1`, the “absolute EC50 for viability” value in assay [1] was over 25 µM. In addition, the drug sensitivity score in assay [2] stood at 0.6.

`C[C@@]1(C(=O)Nc2ccc(F)nc2)CCCN1c1nc(Nc2cc(C3CC3)n[nH]2)c2cccn2n1`: the “absolute EC50 for viability” value in assay [1] amounted to 7.74 µM. In assay [2], this compound showed a drug sensitivity score of 9.3.

With `C[C@H]1Oc2cc(cnc2N)-c2c(nn(C)c2C#N)CN(C)C(=O)c2ccc(F)cc21`, the “absolute EC50 for viability” value in assay [1] is over 1 µM. This compound also returned a drug sensitivity score in assay [2] of 0.2.

`Cc1c(Cn2c(C)nc3c(C(=O)O)cc(N4CCOCC4)cc32)cccc1C(F)(F)F`: in assay [1], the “absolute EC50 for viability” value is over 10 µM. For the same compound, the drug sensitivity score in assay [2] was determined as 0.

With `Cc1cccc(CC(=O)N2CCc3c2ccc(-c2cn(C)c4ncnc(N)c24)c3F)n1`, in assay [1], the “absolute EC50 for viability” value was over 2.5 µM. Moreover, the drug sensitivity score in assay [2] worked out at 0.

For `NCC(=O)Nc1ccc(-n2nc(C(F)(F)F)cc2-c2ccc3c(ccc4ccccc43)c2)cc1`, the “absolute EC50 for viability” value in assay [1] was over 25 µM. Moreover, the drug sensitivity score in assay [2] was determined as 0.5.

For `NC[C@@](O)(c1ccc(Cl)cc1)c1ccc(-c2cn[nH]c2)cc1`, in assay [1], the “absolute EC50 for viability” value was over 10 µM. Also, in assay [2], the drug sensitivity score stood at 3.3.

Turning to `Nc1nccc(-c2c(-c3ccc(F)cc3)ncn2C2CCCCC2)n1`, the “absolute EC50 for viability” value in assay [1] is over 10 µM. Also, in assay [2], the drug sensitivity score worked out at 0.3.

On to `Nc1ncnc2c1c(COc1cccc(Cl)c1)nn2C1CCOCC1`, for which the “absolute EC50 for viability” value in assay [1] was over 10 µM. The drug sensitivity score in assay [2] is 0.

As for `O=C(NCc1ccncc1)C12CC3CC(C1)CC(c1ccc(Cl)cc1)(C3)C2`, the “absolute EC50 for viability” value in assay [1] is over 50 µM. In assay [2], this compound yielded a drug sensitivity score of 3.3.

As for `O=C(Nc1ccc2[nH]nc(-c3ccncc3)c2c1)[C@@H]1CCN(CC(=O)N2CCN(c3ccc(-c4ncccn4)cc3)CC2)C1`, the “absolute EC50 for viability” value in assay [1] is over 10 µM. Besides, the drug sensitivity score in assay [2] is 4.
